Paper PMC9317316, “Synthesis and Evaluation of Some New 4H-Pyran Derivatives as Antioxidant, Antibacterial and Anti-HCT-116 Cells of CRC, with Molecular Docking, Antiproliferative, Apoptotic and ADME Investigations” (Pharmaceuticals, 2022)
Where “and” joins values, the source holds several entries; their conditions need not be identical. Identical values can stand only once. Like-named read-outs stand apart in the source and are kept apart here.

Tests used:
[1] = DPPH radical scavenging assay; details: for IC50: 0.03 to 1 mg/mL, 1 h, mean ± SD, triplicate, read-out: IC50 (mM) for DPPH Scavenging Potency
Protocol: The IC50 values for DPPH were calculated from the plot of the scavenging effect against the compound concentration.
The compounds’ capacities to scavenge the stable radical 1,1 diphenyl-2-picrylhydrazyl (DPPH) formed in solution by donation of a hydrogen atom or an electron was investigated according to the method described by Bersuder and coworkers. Due to the fact that the initial blue/purple solution of diphenyl picrylhydrazine changes to yellow in the presence of compounds with a capacity to scavenge DPPH free radicals, this reaction is used as a measure of a compound’s ability to scavenge any free radical. Briefly, a 0.5 mL volume of DPPH ethanolic solution was mixed with an equal volume of each sample concentration (0.03 to 1 mg/mL), shaken strongly and incubated at room temperature for 1 h in darkness. The absorbance of the residual DPPH radicals was measured at 519 nm and compared to that of the control (without the tested compound). DPPH radical scavenging was calculated using the following formula: Scavenging effect (%) = (1 − Acompound/AControl) × 100, where Acompound and Acontrol are the absorbances of the tested compound and of the control, respectively. A plot of the scavenging effect (%) versus the sample concentration was also performed to determine the compound concentration providing 50% inhibition (IC50).

[2] = Reducing power assay (FRAC, Fe3+ to Fe2+); details: 0-1 mg/mL, absorbance 700 nm
Protocol: Secondly, FRAC was determined over the concentration range of 0.0−1 mg/mL via monitoring Fe^3+−Fe^2+ transformation in the presence of the studied compounds and the reference antioxidant BHT to estimate the values of efficient concentration (EC50), expressed in mM.
The reducing power of the studied compounds was assessed according to Oyaizu’s method. Briefly, different concentrations (ranging from 0 to 1 mg/mL) of each tested compound were first mixed with 1 mL of 0.2 M sodium phosphate buffer (pH 6.6) and 1 mL of 1% potassium ferricyanide (K3Fe(CN)6) and incubated at 50 °C for 20 min. After the addition of 1.25 mL of 20% trichloroacetic acid (TCA), the mixture was centrifuged for 10 min at 3000 rpm and the upper layer solution was then mixed with 0.5 mL of 0.1% fresh ferric chloride and an equal volume of deionized water. Finally, the absorption of the resulting mixture was measured at 700 nm using a UV spectrophotometer against distilled water as the blank, while butylated hydroxytoluene (BHT) was used as a positive control. The sample ferric reducing power capability was indicated by increased absorbance.

B. cereus (ATCC 14579) [3] = test: Antibacterial agar diffusion method (inhibition zone); type: cell-based
Protocol: (§1) The results for the in vitro antibacterial properties of the synthesized compounds against five Gram-positive and four Gram-negative human-pathogenic strains, which were assessed by both the agar diffusion method (based on inhibition zone (IZ)) and the broth dilution bioassay (for the determination of the half-maximal inhibitory concentration (IC50) values), using ampicillin as the reference antibiotic drug, are shown in Table 2 and Table 3.
(§2) The antibacterial activity of all synthesized compounds was evaluated against the Gram-negative strains E. coli (ATCC 25966), K. pneumonia (ATCC 700603), P. aeruginosa (ATCC 27853) and S. enteric (ATCC 43972) and against the Gram-positive strains B. cereus (ATCC 14579), B. subtilis (ATCC 6633), E. faecalis (ATCC 29122), S. aureus (ATCC 25923) and S. epidermidis (ATCC 14990), using the agar diffusion method through measuring the appearance of the inhibition zone on the surface of the top agar, as reported by Berghe and Vlietinck. Ampicillin (10 µg/well) was used as the positive reference standard. Bacterial viability was also investigated by determining the colony-forming ability (CFU) of bacteria incubated at different time intervals without or with appropriate amounts of the compound, which were mixed with 2 ×10^7 CFU/mL in sterile BHI and incubated under shaking for 60 min at 37 °C. Samples were serially diluted into sterile BHI, streaked onto media agar plates and incubated for 24 h at 37 °C. The antibacterial potency of the tested compounds was expressed as the residual number of CFUs with reference to the initial inoculums. The results presented as the half-maximal (50 %) inhibitory concentration (IC50) values are the means of three different measurements.

B. subtilis (ATCC 6633) [4] = test: as above; type: cell-based
Protocol: as §1, §2

E. coli (ATCC 25966) [5] = test: as above; type: cell-based; details: E. coil (ATCC 25966)
Protocol: as §1, §2

E. faecalis (ATCC 29122) [6] = test: as above; type: cell-based
Protocol: as §1, §2

[7] = tested on: K. pneumonia (ATCC 700603); test: as above; type: cell-based
Protocol: as §1, §2

[8] = tested on: P. aeruginosa (ATCC 27853); test: as above; type: cell-based
Protocol: as §1, §2

S. aureus (ATCC 25923) [9] = test: as above; type: cell-based
Protocol: as §1, §2

S. enteric (ATCC 43972) [10] = test: as above; type: cell-based
Protocol: as §1, §2

[11] = tested on: S. epidermidis (ATCC 14990); test: as above; type: cell-based
Protocol: as §1, §2

B. cereus (ATCC 14579) [12] = test: Antibacterial viability (CFU) assay, IC50; type: cell-based; details: Bacillus cereus, ATCC14579
Protocol: as §1, §2

B. subtilis (ATCC 6633) [13] = test: Antibacterial viability (CFU) assay, IC50; type: cell-based
Protocol: as §1, §2

E. coli (ATCC 25966) [14] = test: Antibacterial viability (CFU) assay, IC50; type: cell-based; details: Escherichia coli, ATCC25966; E. coil (ATCC 25966)
Protocol: as §1, §2

E. faecalis (ATCC 29122) [15] = test: Antibacterial viability (CFU) assay, IC50; type: cell-based; details: Enterococcus faecalis, ATCC29122
Protocol: as §1, §2

[16] = tested on: K. pneumonia (ATCC 700603); test: Antibacterial viability (CFU) assay, IC50; type: cell-based; details: Klebsiella pneumoniae, ATCC700603
Protocol: as §1, §2

[17] = tested on: P. aeruginosa (ATCC 27853); test: Antibacterial viability (CFU) assay, IC50; type: cell-based; details: Pseudomonas aeruginosa, ATCC27853
Protocol: as §1, §2

S. aureus (ATCC 25923) [18] = test: Antibacterial viability (CFU) assay, IC50; type: cell-based; details: Staphylococcus aureus, ATCC25923
Protocol: as §1, §2

S. enteric (ATCC 43972) [19] = test: Antibacterial viability (CFU) assay, IC50; type: cell-based; details: read-out: IC50
Protocol: as §1, §2

[20] = tested on: S. epidermidis (ATCC 14990); test: Antibacterial viability (CFU) assay, IC50; type: cell-based; details: Staphylococcus epidermidis, ATCC14990
Protocol: as §1, §2

HCT-116 cells = test: Cell viability (cytotoxicity, LDH release) assay; type: cell-based; details: Homo sapiens, 24 h; for viability at 100 µg/mL: read-out: percent of viable cells
Protocol: The synthesized compounds were also examined at four concentrations (10, 25, 50 and 100 µg/mL) for their cytotoxic effects on human colorectal cancer HCT-116 cells after their incubation together for 24 h.
Cytotoxic potency was examined for a human colon cancer cell line HCT-116 (American Type Culture Collection; Manassas, VA, USA) using various amounts of each compound (10, 25, 50 and 100 µg). Samples were diluted in Dulbecco’s Modified Eagle’s Medium, consisting of 10% Fetal Bovine Serum, and added to cells grown and cultured for 24 h in a 5% CO2-humidified incubator at 37 °C. Then, the activity of lactate dehydrogenase released from damaged cells was determined in the collected supernatant aliquots using an ELISA endpoint assay (Benchmark Plus, Bio-Rad, Hercules, CA, USA). As positive and negative controls, respectively, 0.1% Triton X-100 in the assay medium and the assay medium only were used. Cell viability, shown as mean values ± SDs (n = 3), was expressed as a relative percentage of the OD values determined at 600 nm in compound-treated cells and the control.

[21] = Bacillus subtilis, ATCC6633, B. subtilis (ATCC 6633)
[22] = read-out: Mean IC50 (µM) of cytotoxicity
[23] = read-out: Mean IC50 (µg/mL) of cytotoxicity

Compound	IC50 [1] [mM]	DPPH Radical Scavenging Effenciency (%) at 1 mg/mL [1] [%]	EC50 [2] [µM]	IZ (mm) (B. cereus (ATCC 14579) [3])	IZ (mm) (B. subtilis (ATCC 6633) [4])	IZ (mm) (E. coli (ATCC 25966) [5])	IZ (mm) (E. faecalis (ATCC 29122) [6])	IZ (mm) [7] [mm]	IZ (mm) [8] [mm]	IZ (mm) (S. aureus (ATCC 25923) [9])	IZ (mm) (S. enteric (ATCC 43972) [10])	IZ (mm) [11]	IC50 (B. cereus (ATCC 14579) [12]) [µM]	IC50 (B. subtilis (ATCC 6633) [13]; [21]) [µM]	IC50 (E. coli (ATCC 25966) [14]) [µM]	IC50 (E. faecalis (ATCC 29122) [15]) [µM]	IC50 [16] [µM]	IC50 [17] [µM]	IC50 (S. aureus (ATCC 25923) [18]) [µM]	IC50 (S. enteric (ATCC 43972) [19]) [µM]	other results
COC(=O)C1=C(C)OC(N)=C(C#N)C1c1ccccc1C(=O)O (centres unmarked) [4a, 6-Amino-4-(2-carboxy-phenyl)-5-cyano-2-methyl-4H-pyran-3-carboxylic acid methyl ester]	2.29 ± 0.134	24.15 ± 1.62	827 ± 45	7.50 ± 0.71	5.20 ± 0.28	4.5 ± 0.71	9.00 ± 1.41	2.5 ± 0.7	5.5 ± 0.7	8.00 ± 1.41	4.5 ± 0.7	9.50 ± 0.71 mm	71.8 ± 2.04	64.4 ± 3.37	138 ± 6.68	49.6 ± 1.81	131 ± 3.5	37.6 ± 0.5	41.2 ± 2.48	120 ± 1.91	IC50 [20]: 42.3 ± 1.33 µM; viability at 100 µg/mL (HCT-116 cells): 46%; IC50 (HCT-116 cells; [22]): 165 ± 14.4 µM; IC50 (HCT-116 cells; [23]): 52 ± 4.54 µg/mL; melting point: 216 to 218 °C
COc1cccc(C2C(C#N)=C(N)OC(C)=C2C(=O)OCc2ccccc2)c1[N+](=O)[O-] (centres unmarked) [4c, 6-Amino-5-cyano-4-(3-methoxy-2-nitro-phenyl)-2-methyl-4H-pyran-3-carboxylic acid benzyl ester]	2.24 ± 0.05	57.10 ± 1.56	1230 ± 67	14.00 ± 1.41	11.00 ± 1.41	2.5 ± 0.71	10.00 ± 1.41	3.5 ± 0.7	7.5 ± 0.7	15.50 ± 0.71	8.5 ± 0.7	16.65 ± 0.50 mm	44.5 ± 0.83	46.3 ± 1.68	93.7 ± 4.98	41.1 ± 2.18	112 ± 1.42	85.9 ± 2.61	37 ± 2.02	100 ± 2.61	IC50 [20]: 30.4 ± 1 µM; viability at 100 µg/mL (HCT-116 cells): 11 to 32.5%; IC50 (HCT-116 cells; [22]): 102 ± 4.82 µM; IC50 (HCT-116 cells; [23]): 43 ± 2.03 µg/mL; melting point: 190 to 192 °C
CCOC(=O)C1=C(C)OC(N)=C(C#N)C1c1cccc(-c2ccccc2)c1 (centres unmarked) [4e, 6-Amino-4-biphenyl-3-yl-5-cyano-2-methyl-4H-pyran-3-carboxylic acid ethyl ester]	1.65 ± 0.097	39.25 ± 1.06	305 ± 39	23.00 ± 1.41	20.50 ± 0.71	2.7 ± 0.35	15.50 ± 0.71	2.5 ± 0.7	4.5 ± 0.7	16.50 ± 2.10	3.5 ± 0.7	20.50 mm and 20.50 ± 2.12 mm	33.6 ± 1.58	37.7 ± 1.58	103 ± 3.05	37.3 ± 2.16	90.7 ± 2.78	88 ± 2.78	34.8 ± 2.16	96.1 ± 2.5	IC50 [20]: 30.8 ± 1.58 µM; viability at 100 µg/mL (HCT-116 cells): 11 to 32.5%; IC50 (HCT-116 cells; [22]): 138 ± 9.78 µM; IC50 (HCT-116 cells; [23]): 49.7 ± 3.53 µg/mL; melting point: 186 to 190 °C
COC(=O)C1=C(C)OC(N)=C(C#N)C1c1cccc(O)c1Cl (centres unmarked) [4f, 6-Amino-4-(2-chloro-3-hydroxy-phenyl)-5-cyano-2-methyl-4H-pyran-3-carboxylic acid methyl ester]	3.34 ± 0.131	43.75 ± 1.77	398 ± 45	22.50 ± 0.71	19.50 ± 0.71	7.5 ± 0.71	19.00 ± 1.41	4.5 ± 0.7	6.0 ± 1.4	16.50 ± 0.71	6.5 ± 0.7	14.50 ± 0.71 mm	42.4 ± 2.65	23.6 to 36.8	95.7 ± 5.61	34.6 ± 0.59	82 ± 3.43	105 ± 2.81	38.4 ± 1.31	94.2 ± 3.43	IC50 (B. subtilis (ATCC 6633) [13]; B. subtilis (ATCC 6633)): 36.8 ± 0.87 µM; IC50 [20]: 33 ± 2.65 µM; viability at 100 µg/mL (HCT-116 cells): 55.5%; IC50 (HCT-116 cells; [22]): 333 ± 13.4 µM; IC50 (HCT-116 cells; [23]): 107 ± 4.29 µg/mL; melting point: 238 to 240 °C
